From patent publication US9791451B2, “Squaraine based fluorescent probe and a process for the preparation thereof” (Council of Scientific & Industrial Research, priority 2013, dated 2017)
Like-named read-outs stand apart in the source and are kept apart here.

Columns and labels:
Hep-G2 cells [1] = format: cell-based; settings: for Fluorescence Intensity, DAPI Image: 380 nm exc; for Fluorescence Intensity, DAPI Image / Fluorescence Intensity, Alexa Image: complex 1×10^−6 M; for Fluorescence Intensity, Alexa Image: 640 nm exc
Procedure: (§1) The culture medium was prepared by dissolving 13.4 g of DMEM-high glucose (Sigma, USA) in 1 L of distilled water. Sodium bicarbonate (3.7 g L^−1) was added to the medium and the pH of the medium was adjusted to 7.4. This medium was then sterilized by passing through a sterile filter assembly fitted with a 0.22 μm filter (Millipore, USA) using a vacuum pump. Later, the medium was stored in pre-sterilized Borosil polypropylene bottles, at 4° C., until further use. To the prepared culture medium an antibiotic mixture (20 μL mL^−1 of 100× concentrate, Sigma, USA) was added. Fetal bovine serum (FBS) (Sigma, USA) was also added to the medium to give a final concentration of 10% (to 900 mL medium, 100 mL of FBS was added).
Hep G2 cells (Human Hepatocellular carcinoma cell lines), which was obtained, from National Centre for Cell Science, Pune, India, were stored in cryovials at −196° C. in liquid nitrogen, in a medium containing 70% FBS, 10% dimethyl sulfoxide (DMSO) and 20% DMEM. For revival, the vials were thawed by placing them in a water-bath maintained at 37° C. for 2-3 minutes followed by centrifugation at 3000 rpm for 3 minutes. Supernatent was removed and the pellet after suspending in medium were transferred into a radiation sterilized culturing flask, T-25 cm^2 (BD Biosciences) inside the laminar flow. Subsequently, the flask was placed in a CO2 incubator for 2 h. The viable cells stick to the culture flask while the dead cells remain in the medium. Later the medium was replaced with fresh medium containing 10% FBS and incubated till a cell confluency of 70-80%. The medium was then discarded following desired confluency. Following confluency, since the Hep G2 cells are adherent in nature, they were trypsinised by using 1 mL of trypsin (0.25%)—EDTA (0.53 mM) buffer containing 0.9% sodium chloride for […]. The cells were then transferred to a centrifuge tube and centrifuged at 2000 rpm for 3 min, followed by the removal of the supernatant.
For sub culturing, fresh DMEM containing 10% FBS was added under aseptic conditions. Cells were flushed with the help of pipette (1 mL) until the cells are completely dispersed into the medium. The cells were then diluted in a sterile complete medium at 1:3 times and transferred into fresh culture flasks. Then the flasks were placed inside CO2 incubator.
The 1:6 Sq-BSA Complex whose sensitivity of pH lies within the physiological region and due to the ratiometric fluorescence response (FIG. 14) was used in this system for monitoring minor pH fluctuations inside cells ratiometrically. Hep-G2 cells were pre-incubated with phosphate buffer of different pH (6.5, 7.0, 7.5) and kept for 10 minutes. The 1:6 Sq-BSA complex (1×10^−6 M), which was prepared by mixing 5 μl of Sq (4×10^−5 M, prepared in acetonitrile) and 15 μl of BSA protein (1.2×10^−3 M, prepared in phosphate buffer 4.2) was added to each cells and kept for 10 minutes. The cells were then centrifuged and diluted for 2 times and then images has taken using confocal fluorescence microscope using alexa (640 nm exc) and DAPI (380 nm exc) as filters. With respect to the pH of the wells the fluorescence intensity from the DAPI image was enhanced and the alexa image got quenched. Quantitative data for pH measurements in cells were obtained using bio-rad image data, explorer software (table 2). The viability of the cells after incubation of Sq-BSA complex was confirmed by the bright-field transmission measurements (FIG. 15 c, bottom).

HSA protein = HSA protein (Homo sapiens, UniProt P02768); assay: Noncovalent (pH 4.2) and covalent (pH 8.2) labeling of serum albumin, fluorescence turn-on; format: binding; settings: 25 mM phosphate buffer, 6 μM
Chain of HSA protein (P02768 25-609): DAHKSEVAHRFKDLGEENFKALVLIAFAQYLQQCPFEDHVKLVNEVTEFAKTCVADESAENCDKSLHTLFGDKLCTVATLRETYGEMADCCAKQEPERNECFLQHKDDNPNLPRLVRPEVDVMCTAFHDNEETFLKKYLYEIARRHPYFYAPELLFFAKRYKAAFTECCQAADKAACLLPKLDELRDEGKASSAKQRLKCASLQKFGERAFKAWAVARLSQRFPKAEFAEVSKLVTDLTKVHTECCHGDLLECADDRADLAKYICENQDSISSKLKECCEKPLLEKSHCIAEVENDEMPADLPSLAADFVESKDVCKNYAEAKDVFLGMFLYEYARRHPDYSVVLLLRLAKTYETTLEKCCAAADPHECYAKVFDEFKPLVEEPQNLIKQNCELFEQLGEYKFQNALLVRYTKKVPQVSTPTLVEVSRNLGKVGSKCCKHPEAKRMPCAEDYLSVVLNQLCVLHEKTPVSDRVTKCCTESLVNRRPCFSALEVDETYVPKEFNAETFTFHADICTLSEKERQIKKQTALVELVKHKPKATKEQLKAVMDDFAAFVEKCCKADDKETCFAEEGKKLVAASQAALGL
Source text: (§2) This selectivity apparently originates from the Sq disassembly driven by the molecular recognition sites of the serum albumin proteins.

[2] = Self-assembly morphology by AFM, TEM and DLS; format: physicochemical
Source text: The self-assembly of Sq was established by atomic force microscopy (AFM), transition electron microscopy (TEM) and DLS analysis. […] The dynamic light scattering (DLS) measurements of a buffer solution containing.

[3] = Stability of the dye over pH; format: physicochemical
Source text: Even though noncovalent interaction of serum albumin proteins and covalent interaction of thiol containing small molecules with squaraine dyes are known in individual cases, achieving both type of interaction by a single probe in a reversible fashion with an external stimulus remains challenging. Therefore, the first and foremost task was identifying an appropriate switchable dye molecule, which is stable at a broad pH window with distinct emission wavelengths during the different modes of interactions and having a tunable pH responsive interaction. […] This absorption band is similar to the absorption of Sq in acetonitrile in which the molecule exists in the monomeric state. […] Sq (6 μM) in a 25 mM phosphate buffer (pH 4.2) has no emission at 700 nm due to the aggregation. Upon addition of BSA protein, a gradual enhancement in the fluorescence intensity at 700 nm was observed (FIG. 7b). This fluorescence enhancement is due to the disassembly of aggregates and the consequent noncovalent interaction between Sq and BSA protein. The solution of the Sq dye in 25 mM phosphate buffer has a blue color and at this stage the dye is non emissive (FIG. 7c, top).

[4] = Selectivity against small thiol containing molecules in self-assembled state; settings: 10 equivalent; Sq 6×10^−6 M; 480 nm
Source text: The selectivity of our nanoprobe towards serum albumin proteins from small thiol containing molecules like cysteine, homocysteine, glutathione, mercaptoethanol, dithiothreitol, cystamine and thioglycolic acid at a higher pH of 8.2, where the dye is expected to undergo thiol alkylation reaction is investigated. […] Bar diagram represents the selectivity of Sq (6×10^−6 M) for BSA and HSA protein (6×10^−6 M) from other small thiol containing molecules (FIG. 10) which clearly indicate that the probe in its self-assembled state is able to detect serum albumin protein among other thiol containing small molecules.

[5] = tested on: other thiol and nonthiol containing proteins (heamoglobin, glutathione reductase, bromelain); assay: Selectivity against other thiol and nonthiol containing proteins; format: binding
Source text: as §2

Hep-G2 cells [6] = assay: Detection of minor thiol fluctuations inside HepG2 cells pre-treated with NEM; format: cell-based, Human; settings: NEM 3×10^−3 M to 3×10^−6 M, 15 minutes; dye 10 minutes
Procedure: as §1
Hep G2 cells (Human Hepatocellular carcinoma cell lines), which was obtained, from National Centre for Cell Science, Pune, India, were stored in cryovials at −196° C. in liquid nitrogen, in a medium containing 70% FBS, 10% dimethyl sulfoxide (DMSO) and 20% DMEM. […]
Hep-G2 cells were pre-incubated with NEM of various concentrations (3×10^−3 M to 3×10^−6 M) and kept for 15 minutes. […] The cells were then centrifuged and diluted for 2 times and then images were-taken using confocal fluorescence microscope using alexa (640 nm exc) and DAPI (380 nm exc) as filters.

BSA protein = BSA protein (Bos taurus, UniProt P02769); assay: Noncovalent (pH 4.2) and covalent (pH 8.2) labeling of serum albumin, fluorescence turn-on; format: binding, Bovine; settings: 25 mM phosphate buffer, 6 μM
Chain of BSA protein (P02769 25-607): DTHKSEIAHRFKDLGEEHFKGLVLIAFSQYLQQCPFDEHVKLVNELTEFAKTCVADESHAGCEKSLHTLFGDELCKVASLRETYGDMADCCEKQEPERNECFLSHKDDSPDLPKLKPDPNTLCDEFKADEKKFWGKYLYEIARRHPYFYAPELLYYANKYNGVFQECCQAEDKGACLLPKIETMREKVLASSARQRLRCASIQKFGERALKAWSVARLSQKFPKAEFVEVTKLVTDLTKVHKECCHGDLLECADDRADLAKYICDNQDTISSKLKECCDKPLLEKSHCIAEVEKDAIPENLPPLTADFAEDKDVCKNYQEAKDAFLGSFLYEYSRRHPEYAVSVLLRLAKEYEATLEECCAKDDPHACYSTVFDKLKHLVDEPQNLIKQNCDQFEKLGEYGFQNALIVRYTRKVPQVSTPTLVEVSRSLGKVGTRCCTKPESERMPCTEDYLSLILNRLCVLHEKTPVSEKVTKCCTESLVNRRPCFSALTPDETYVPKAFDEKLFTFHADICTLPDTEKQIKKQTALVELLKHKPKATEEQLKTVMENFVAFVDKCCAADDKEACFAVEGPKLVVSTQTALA
Procedure: Stock solution of Sq (1.2×10^−3 M) was prepared in acetonitrile and stock solution of BSA protein (2.4×10^−3M) was prepared in 25 mM phosphate buffer at pH 4.2. 15 μL of Sq from the stock solution is added to the 25 mM phosphate buffer at pH 4.2, to make the resulting concentration of the solution into 6×10^−6 M. To this solution different volumes ranging from 7.5-150 μL of BSA protein were added and the absorption and emission spectra were recorded each time after 20 minutes. The broad absorption (550-850 nm) corresponding to the absorption of Sq aggregates narrowed with a turn-on fluorescence at 700 nm (λexc @ 640 nm) emission was observed.
Stock solution of Sq (1.2×10^−3 M) was prepared in acetonitrile and stock solution of BSA protein (1.2×10^−3 M) was prepared in 25 mM phosphate buffer at a pH of 8.2. 15 μL of Sq from the stock solution is added to 25 mM phosphate buffer at pH 8.2, to make the resulting concentration of the solution to 6×10^−6 M. To this solution different volumes ranging from 1.5-36 μL of BSA protein were added and the absorption and emission spectra were recorded at 15 minutes interval. The broad absorption (550-850 nm) corresponding to the absorption of Sq aggregates quenched with concomitant formation of an absorption at 380 nm was observed (FIG. 8a). […]

[7] = Fluorescence detection of thiols (GSH) by Sq, selectivity and sensitivity; settings: pH 8.0
Procedure: Sq detects GSH quantitatively with high sensitivity (2 nM) (FIG. 3). Formula 1 prepared in 30% ACN/25 mM phosphate buffer is used for monitoring thiol variations inside cells. […] The aggregation was confirmed by temperature-dependent UV/Vis and emission spectroscopic studies in 15% acetonitrile/water mixture (FIG. 5a and FIG. 5b). The self-assembly of Sq was established further by atomic force microscopy (AFM), transition electron microscopy (TEM) and DLS analysis. […] Formula 1 prepared in 25 mM phosphate buffer solution at a pH of 4.2 labels serum albumin proteins noncovalently, which is evident from the UV-vis and emission spectroscopic studies. The broad absorption (550-850 nm) corresponding to the absorption of Sq aggregates narrowed with a turn-on fluorescence at 700 nm exc @ 640 nm) emission upon addition of BSA protein was observed (FIGS. 7a & 7b). The solution of the Sq dye in phosphate buffer has a blue color but nonemissive (FIG. 7c, top). […] The 1:6 Sq-BSA complex whose pH sensitivity lies within the physiological region and due to the ratiometric fluorescence response (FIG. 14) this system was used for monitoring minor pH fluctuations inside cells ratiometrically. […] Quantitative data for pH measurements in cells were obtained using bio-rad image data explorer software (table 2). […]

Molecule: 1:6 Sq-BSA complex: complex of squaraine dye Sq with BSA protein in ratio 1:6
- viability of the cells after incubation (Hep-G2 cells [1]): confirmed
- Fluorescence Intensity, DAPI Image (Hep-G2 cells [1]; pH 6.5): 8.5
- Fluorescence Intensity, Alexa Image (Hep-G2 cells [1]; pH 6.5): 39.84
- Fluorescence Intensity, DAPI Image (Hep-G2 cells [1]; pH 7.0): 24.61
- Fluorescence Intensity, Alexa Image (Hep-G2 cells [1]; pH 7.0): 21.47
- Fluorescence Intensity, DAPI Image (Hep-G2 cells [1]; pH 7.5): 30.18
- Fluorescence Intensity, Alexa Image (Hep-G2 cells [1]; pH 7.5): 18.08

Molecule: CCCCN(CCCC)c1ccc(C2=C(O)C(c3ccc(/C=C/c4cc(OC)ccc4OC)n3CCOCCOCCOC)C2=O)cc1 (centres unmarked) [Sq, (E)-2-(4-(dibutylamino)phenyl)-4-(5-(2,5-dimethoxystyryl)-1-(2-(2-(2-methoxyethoxy)ethoxy)ethyl)-1H-pyrrol-2-yl)-3-hydroxycyclobut-2-enone]
- fluorescence response with HSA at pH 8.2 (covalent labeling) (HSA protein; λexc 380 nm): green emission at 480 nm
- fluorescence response with HSA at pH 4.2 (noncovalent labeling) (HSA protein; λexc 640 nm): fluorescence enhancement at 700 nm
- diameter of spherical aggregates (AFM and TEM) ([2]; 6×10^−6 M in 25 mM phosphate buffer, pH 4.2): 100-300 nm
- mean diameter of aggregates (DLS) ([2]; buffer solution, Sq 6 μM): 200 nm
- pH range of stability [3]: 2-12
- fluorescence response with thiol containing small molecules at pH 8.2 [4]: unable to generate much fluorescent enhancement in the 480 nm region
- fluorescence response with heamoglobin, glutathione reductase, bromelain at pH 8.2 ([5]; 0.10 equivalence, 480 nm): unable to produce fluorescence enhancement at 480 nm
- fluorescence response with other thiols and nonthiol containing proteins at pH 4.2 ([5]; 10 equivalence, 700 nm): no fluorescence enhancement in the NIR region
- fluorescence intensity in cells versus NEM concentration (Hep-G2 cells [6]): gradual quenching
- fluorescence response with BSA at pH 8.2 (covalent labeling) (BSA protein; λexc 380 nm): green emission at 480 nm
- fluorescence response with BSA at pH 4.2 (noncovalent labeling) (BSA protein; λexc 640 nm): fluorescence enhancement at 700 nm
- selectivity toward thiols among amino acids (fluorescence at 510 nm) ([7]; 20 equivalence of 9 amino acids, 1 equivalence Cys, Hcy, GSH): highly selective to GSH
- detection limit for GSH (fluorescent intensity at 510 nm) ([7]; 30% ACN/25 mM phosphate buffer, λexc 380 nm): 2 nM
